Test results published in US8524744B2, “Arylamine ketones, their preparation methods, the pharmaceutical composition containing them and their use” (Institute of Mataria Medica, Chinese Academy of Medical …, priority 2004, dated 2013).

system: polymorphonuclear leucocytes from rat pleural cavity; test: release of β-glucuronidase by polymorphonuclear leucocytes from rat pleural cavity in vitro (PAF as irritant); format: cell-based; conditions: Dose 1 × 10^−4 mol · L^−1; Irritant 2 × 10^−7 mol · L^−1
Description: 1% carrageenan was injected into the right pleural cavity of Wistar rat to induce polymorphonuclear leucocytes. The cells was suspended in Dulbecoo's buffer at the concentration of 2.5×10^6 cells·ml^1. The fluid containing the compound or solvent and 250 μl of cells suspension were added in test tube and incubated in 37° C. waterbath for 15 min. Then 2.5 μl of cytochalasin B (1×10^−3 mol·L^−1) was added and the reaction was continued for 5 min. Then 2.5 μl of PAF (1×10^−4 mol·L^−1) was added and for another 5 min. The test tubes were put into ice bath to stop the reaction. The supernatant was isolated and used as the β-glucuronidase release fluid. 25 μl of the enzyme fluid, 25 μl of phenolphthalein-glucuronic acid (2.5 mmol·L^−1) and 100 μl of acetic acid buffer (0.1 mol·L^−1) were added into each well of 96-well plate which was placed into incubater and kept at 37° C.3 for 18 hr. 150 μl of NaOH (0.3 mol·L^−1) was added in each well to cease the reaction and the optical density was read at 550 nm.

Compared with `CCOC(=O)N1CCN(CCC(=O)C=Cc2cc(OC)c(OC)c(OC)c2)CC1.Cl` [Compound 28, 5-[(N4-Ethoxycarbonyl)piperazyl]-1-(3,4,5-trimethoxy)phenyl-1-penten-3-one hydrochloride], `CCOC(=O)N1CCN(CCC(=O)C=Cc2ccc3c(c2)OCO3)CC1.Cl` [Compound 32, 5-[(N4-Ethoxycarbonyl)piperazyl]-1-(3,4-methylenedioxyphenyl)-1-penten-3-one hydrochloride] is higher in “Inhibition (%) of β-glucuronidase release” value (“Inhibition (%)” below): 21.8% for the first, 46.1% for the second.

same assay, conditions: Dose 1 × 10^−5 mol · L^−1; Irritant 1 × 10^−6 mol · L^−1

Going from “5-[(4-Ethoxycarbonyl)piperidyl]-1-(3,4-dimethoxyphenyl)-1-penten-3-one hydrochloride [Compound 4]” to “5-[(N4-Benzyl)piperazyl]-1-(3,4-dimethoxyphenyl)-1-penten-3-one hydrochloride [Compound 48]”, the “Inhibition (%)” value falls from 28.05% to 25.87%.

Compared with “5-[(N4-Ethoxycarbonyl)piperazyl]-1-(4-trifluoromethylphenyl)-1-penten-3-one hydrochloride [Compound 29]”, “5-[N4-(3,4-Methylenedioxy(benzyl)piperazyl)]-1-(3,4,5-trimethoxy-phenyl)-1-penten-3-one hydrochloride [Compound 54]” is higher in “Inhibition (%)” value: 22.22% for the first, 65.88% for the second.

Going from `CCOC(=O)C1CCN(CCC(=O)C=Cc2ccc(OCC)c(OC)c2)CC1.Cl` [Compound 5, 5-[(4-Ethoxycarbonyl)piperidyl]-1-(3-methoxy-4-ethoxyphenyl)-1-penten-3-one hydrochloride] to `CCOC(=O)C1CCN(CCC(=O)C=Cc2cc(OC)c(OC)c(OC)c2)CC1.Cl` [Compound 6, 5-[(4-Ethoxycarbonyl)piperidyl]-1-(3,4,5-trimethoxyphenyl)-1-penten-3-one hydrochloride], the “Inhibition (%)” value falls from 45.34% to 39.53%.

Going from `CCOC(=O)C1CCN(CCC(=O)C=Cc2ccc(Cl)cc2Cl)CC1.Cl` [Compound 10, 5-[(4-Ethoxycarbonyl)piperidyl]-1-(2,4-dichlorophenyl)-1-penten-3-one hydrochloride] to `CCOC(=O)C1CCCN(CCC(=O)C=Cc2ccc(Cl)cc2)C1.Cl` (centres unmarked) [Compound 13, 5-[(3-Ethoxycarbonyl)piperidyl]-1-(4-chloro)phenyl-1-penten-3-one hydrochloride], the “Inhibition (%)” value falls from 51.07% to 20.56%.

Going from `CCOC(=O)C1CCCN(CCC(=O)C=Cc2ccc(OC)c(O)c2)C1.Cl` (centres unmarked) [Compound 14, 5-[(3-Ethoxycarbonyl)piperidyl]-1-(3-hydroxy-4-methoxyphenyl)-1-penten-3-one hydrochloride] to `Cl.O=C(C=Cc1ccc(F)cc1)CCN1CCC(Cc2ccccc2)CC1` [Compound 17, 5-[(4-Benzyl)piperidyl]-1-(4-fluorophenyl)-1-penten-3-one hydrochloride], the “Inhibition (%)” value rises from 36.65% to 37.64%.

Compared with `CCCCOc1ccc(C=CC(=O)CCN2CCC(Cc3ccccc3)CC2)cc1.Cl` [Compound 22, 5-[(4-Benzyl)piperidyl]-1-(4-butoxyphenyl)-1-penten-3-one hydrochloride], `CCCOc1ccc(C=CC(=O)CCN2CCC(Cc3ccccc3)CC2)cc1.Cl` [Compound 22b, 5-[(4-Benzyl)piperidyl]-1-(4-propoxyphenyl)-1-penten-3-one hydrochloride] is lower in “Inhibition (%)” value: 69.00% for the first, 41.79% for the second.

Going from `Cl.O=C(C=Cc1ccc(Cl)cc1Cl)CCN1CCC(Cc2ccccc2)CC1` [Compound 23, 5-[(4-Benzyl)piperidyl]-1-(2,4-dichlorophenyl)-1-penten-3-one hydrochloride] to `CCOC(=O)N1CCN(CCC(=O)C=Cc2ccc(Br)cc2)CC1.Cl` [Compound 30, 5-[(N4-Ethoxycarbonyl)piperazyl]-1-(4-bromophenyl)-1-penten-3-one hydrochloride], the “Inhibition (%)” value falls from 32.27% to 23.54%.

Going from `CCOC(=O)N1CCN(CCC(=O)C=Cc2ccc(OC)cc2)CC1.Cl` [Compound 34d, 5-[(N4-Ethoxycarbonyl)piperazyl]-1-(4-methoxyphenyl)-1-penten-3-one hydrochloride] to `CC1CN(CCC(=O)C=Cc2ccc(Br)cc2)CC(C)O1.Cl` (centres unmarked) [Compound 39b, 5-(2,6-Dimethylmorpholinyl)-1-(4-bromophenyl)-1-penten-3-one hydrochloride], the “Inhibition (%)” value falls from 62.64% to 40.48%.

With `COc1ccc(C=CC(=O)CCN2CC(C)OC(C)C2)cc1.Cl` (centres unmarked) [Compound 39c, 5-(2,6-Dimethylmorpholinyl)-1-(4-methoxyphenyl)-1-penten-3-one hydrochloride] the “Inhibition (%)” value was 28.66%.

same assay, conditions: Dose 1 × 10^−5 mol · L^−1; Irritant 1 × 10^−7 mol · L^−1

Going from `CCOC(=O)C1CCN(CCC(=O)C=Cc2ccc(O)c(OC)c2)CC1.Cl` [Compound 8, 5-[(4-Ethoxycarbonyl)piperidyl]-1-(3-methoxy-4-hydroxyphenyl)-1-penten-3-one hydrochloride] to `CCOC(=O)C1CCCN(CCC(=O)C=Cc2ccc(OC)c(OCC)c2)C1.Cl` (centres unmarked) [Compound 12, 5-[(3-Ethoxycarbonyl)piperidyl]-1-(3-ethoxy-4-methoxyphenyl)-1-penten-3-one hydrochloride], the “Inhibition (%)” value rises from 158.42% to 181.48%.

First: CCOC(=O)C1CCCN(CCC(=O)C=Cc2ccc3c(c2)OCO3)C1.Cl (centres unmarked) [Compound 15, 5-[(3-Ethoxycarbonyl)piperidyl]-1-(3,4-methylenedioxyphenyl)-1-penten-3-one hydrochloride]
Second: CCOC(=O)N1CCN(CCC(=O)C=Cc2ccc(O)cc2)CC1.Cl [Compound 24, 5-[(N4-Ethoxycarbonyl)piperazyl]-1-(4-hydroxyphenyl)-1-penten-3-one hydrochloride]
The “Inhibition (%)” value of the first is higher: 141.17% for the first, 120.85% for the second.

same assay, conditions: Dose 1 × 10^−5 mol · L^−1; Irritant 2 × 10^−7 mol · L^−1

Compared with `Cc1ccc(C=CC(=O)CCN2CCC(Cc3ccccc3)CC2)cc1.Cl` [Compound 19, 5-[(4-benzyl)piperidyl]-1-(4-methylphenyl)-1-penten-3-one hydrochloride], `Cl.O=C(C=Cc1ccc(F)cc1)CCN1CCN(Cc2ccccc2)CC1` [Compound 44a, 5-[(N4-Benzyl)piperazyl]-1-(4-fluorophenyl)-1-penten-3-one hydrochloride] is lower in “Inhibition (%)” value: 79.01% for the first, 52.46% for the second.

In the case of `Cl.O=C(C=Cc1ccc(C(F)(F)F)cc1)CCN1CCN(Cc2ccccc2)CC1` [Compound 44b, 5-[(N4-Benzyl)piperazyl]-1-(4-trifluoromethylphenyl)-1-penten-3-one hydrochloride], the “Inhibition (%)” value is reported as 57.93%.

same assay, conditions: Dose 1 × 10^−5 mol · L^−1; Irritant 5 × 10^−7 mol · L^−1

With `CCOC(=O)C1CCN(CCC(=O)C=Cc2ccc(O)cc2)CC1.Cl` [Compound 1, 5-[(4-Ethoxycarbonyl)piperidyl]-1-(4-hydroxyphenyl)-1-penten-3-one hydrochloride] the “Inhibition (%)” value was 97.87%.

same assay, conditions: Dose 2 × 10^−6 mol · L^−1; Irritant 1 × 10^−7 mol · L^−1

Compared with `CCOC(=O)C1CCN(CCC(=O)C=Cc2ccc(C#N)cc2)CC1.Cl` [Compound 2, 5-[(4-Ethoxycarbonyl)piperidyl]-1-(4-cyanophenyl)-1-penten-3-one hydrochloride], `CCOC(=O)N1CCN(CCC(=O)C=Cc2ccc(C#N)cc2)CC1.Cl` [Compound 34a, 5-[(N4-Ethoxycarbonyl)piperazyl]-1-(4-cyanophenyl)-1-penten-3-one hydrochloride] is lower in “Inhibition (%)” value: 126.36% for the first, 121.34% for the second.
